{"source": "patent US20090252673A1", "about": "“Methods of Making and Using Rubidium-81-Containing Compositions” (priority 2006, published 2009)", "system": "occlusion/reperfusion rat heart model", "test": "Ex vivo dual tracer autoradiography, Tl-201 and Rb-81 redistribution kinetics", "assay_type": "in vivo, rats", "details": "20 μm heart slices, phosphor-imager ROIs", "description": "Three additional rats were simultaneously injected with 20 MBq Rb-81 and 2.7 MBq Tl-201. After the occlusion/injection/reperfusion procedure was completed (see FIG. 8), the animals were sacrificed at 0, 15 and 45 min after initiating the reperfusion.\nAfter the hearts of the animals were removed and freshly frozen in liquid nitrogen, they were sliced into short axis 20 μm slices. Radioactivity in the tissues sections was determined by using a phosphor-imager. Rb-81 was measured over a period of 3 h directly after preparation of the slices, whereas the Tl-201 activity was determined after the Rb-81 activity was almost completed (Rb-81: t1/2=4.58 h versus a 4 day decay period).\nQuantitative evaluations were carried out by comparison of the detected counts within regions-of-interest in both, normal tissue areas and occluded tissues areas. Comparisons are given in percent of normal heart tissue.", "data": [{"compound": "[201Tl]", "note": "[Tl-201, reference compound]", "values": [{"measurement": "activity in occluded areas, percent of the uptake in normal tissues", "setting": "0 min p.i.", "value": 5, "unit": "%"}, {"measurement": "activity in occluded areas, percent of the uptake in normal tissues", "setting": "15 min p.i.", "value": 28, "unit": "%"}, {"measurement": "activity in occluded areas, percent of the uptake in normal tissues", "setting": "45 min p.i.", "value": 58, "unit": "%"}]}]}
